Results as given in ChEMBL document CHEMBL1158978, “Antimicrobial N-methylpyridinium salts related to the xestamines from the Caribbean sponge Calyx podatypa” (1991).
Counter-ions that a name gives are not always drawn.

Legend:
Type in all cases: functional
Conditions in all cases: read-out: IZ
Staphylococcus aureus = assay: Antimicrobial activity against Staphylococcus aureus at 5 ug/ml by standard disk assay
Candida albicans = assay: Antimicrobial activity against Candida albicans at 10 ug/ml by standard disk assay
Bacillus subtilis = assay: Antimicrobial activity against Bacillus subtilis at 5 ug/ml by standard disk assay

Structure (SMILES): CON(C)CCCCCCCCCC/C=C\C#CCCCCc1ccc[n+](C)c1 [XESTAMINE F IODIDE SALT]
- zone of inhibition at 5 µg/mL (Staphylococcus aureus): 9 mm
- zone of inhibition at 10 µg/mL (Candida albicans): 10 mm
- zone of inhibition at 5 µg/mL (Bacillus subtilis): 8 mm
